Experimental data: article PMC9146695, “Globularia alypum L. and Related Species: LC-MS Profiles and Antidiabetic, Antioxidant, Anti-Inflammatory, Antibacterial and Anticancer Potential” (Pharmaceuticals, 2022)
In brackets after ≈: the same amount, converted by molar mass.

Legend:
Type in all cases: cell-based
[1] = system: Klebsiella pneumoniae MFBF 10402; assay: Serial broth microdilution with agar sub-cultivation
[2] = system: Escherichia coli ATCC 10536; assay: as above
[3] = system: Staphylococcus aureus ATCC 29213; assay: as above
[4] = system: Staphylococcus aureus ATCC 6538; assay: as above
[5] = system: Bacillus subtilis ATCC 6633; assay: as above
[6] = system: Enterococcus faecalis ATCC 29212; assay: as above; conditions: ATCC29212, n.d. = not detected (0.18–11.36 mg/mL)
[7] = system: Pseudomonas aeruginosa ATCC 27853; assay: as above
[8] = system: Staphylococcus aureus ATCC 6538; assay: Well diffusion method; conditions: aerial parts extracts c = 50 mg/mL; antibiotics c = 0.2 mg/mL
Procedure: (§1) Antibacterial activity was evaluated using the following strains: Bacillus cereus American Type Culture Collection (ATCC, Manassas, VA, USA) 11778, B. subtilis ATCC 6633, Enterococcus faecalis ATCC 29212, Staphylococcus aureus ATCC 6538 and S. aureus ATCC 29213 among Gram-positive and Escherichia coli ATCC 10536, Klebsiella pneumoniae MFBF 10402 and Pseudomonas aeruginosa ATCC 27853 among Gram-negative bacterial species. Additionally, eight clinical isolates of S. aureus, including methicillin-resistant S. aureus (MRSA MFB F101, MRSA MFBF 124, MRSA MFBF 154, MRSA MFBF 164, and MRSA MFBF 177) and methicillin susceptible S. aureus (S. aureus MFBF 505, S. aureus MFBF 10661 and S. aureus MFBF 10666) were used. Bacterial strains were sourced from the Collection of Microorganisms, Department of Microbiology, Faculty of Pharmacy and Biochemistry, University of Zagreb. Inoculums were prepared from overnight cultures that were cultured on tryptic soy agar (TSA) at 37 °C, suspended in sterile physiological saline, with the optic density adjusted to 0.5 McFarland (1.5 × 10^8 colony-forming units (CFUs)/mL) using a densitometer (Densimat, BioMérieux, Marcy-l’Étoile, France). Right before cultivation in nutrient medium, 1 mL of each prepared suspension was dissolved with 9 mL physiological saline. Prior to cell treatment, sample stock solutions in distilled water (c = 50 mg/mL) were filtered through Chromafil cellulose acetate filters of pore size 0.22 μm (Macherey-Nagel, Düren, Germany).
(§2) Well diffusion method was carried out according to the European Pharmacopoeia. Inoculums (100 μL) were transferred to individual petri dishes with 4 mm thick Müller–Hinton agar and equally distributed across agar surface with a glass L-stick. Wells were prepared using sterile stainless-steel cylinders (d = 6 mm) and filled with 50 μL of methanolic aerial parts extract solution (c = 50 mg/mL) in distilled water. Plates were incubated at 37 °C for 18 h in the dark. Diameters of the zones of inhibition of bacterial growth (mm) were read from the diameters of transparent zones around the wells. Gentamicin and norfloxacin (c = 0.2 mg/mL) were used as positive controls.

[9] = system: Bacillus cereus ATCC 11778; assay: Well diffusion method; conditions: aerial parts extracts c = 50 mg/mL; antibiotics c = 0.2 mg/mL; n.d. = growth inhibition not detected
Procedure: as §1, §2

[10] = system: Bacillus subtilis ATCC 6633; assay: Well diffusion method; conditions: aerial parts extracts c = 50 mg/mL; antibiotics c = 0.2 mg/mL; n.d. = growth inhibition not detected
Procedure: as §1, §2

[11] = system: Escherichia coli ATCC 10536; assay: Well diffusion method; conditions: aerial parts extracts c = 50 mg/mL; antibiotics c = 0.2 mg/mL; n.d. = growth inhibition not detected
Procedure: as §1, §2

[12] = system: Pseudomonas aeruginosa ATCC 27853; assay: Well diffusion method; conditions: aerial parts extracts c = 50 mg/mL; antibiotics c = 0.2 mg/mL; n.d. = growth inhibition not detected
Procedure: as §1, §2

[13] = system: Klebsiella pneumoniae MFBF 10402; assay: Well diffusion method; conditions: aerial parts extracts c = 50 mg/mL; antibiotics c = 0.2 mg/mL; n.d. = growth inhibition not detected
Procedure: as §1, §2

[14] = system: Enterococcus faecalis ATCC 29212; assay: Well diffusion method; conditions: aerial parts extracts c = 50 mg/mL; antibiotics c = 0.2 mg/mL; n.d. = growth inhibition not detected
Procedure: as §1, §2

[15] = system: Bacillus cereus ATCC 11778; assay: Serial broth microdilution with agar sub-cultivation

MIC ([1]; MFBF10402, aerial parts extracts, TTC detection, n.d. = growth inhibition not detected (0.18–11.36 mg/mL)): 0.3 µg/mL (≈ 0.628 µM) | MIC ([2]; ATCC10536, aerial parts extracts, TTC detection, n.d. = growth inhibition not detected (0.18–11.36 mg/mL)): 0.1 µg/mL (≈ 0.209 µM) | MIC ([3]; ATCC29213, aerial parts extracts, TTC detection): 0.3 µg/mL (≈ 0.628 µM) | MIC ([4]; ATCC6538, aerial parts extracts, TTC detection): 0.6 µg/mL (≈ 1.26 µM) | MIC ([5]; ATCC6633, aerial parts extracts, TTC detection, n.d. = growth inhibition not detected (0.18–11.36 mg/mL)): < 0.1 µg/mL | MIC ([7]; ATCC27853, aerial parts extracts, TTC detection, n.d. = growth inhibition not detected (0.36–22.73 mg/mL)): 1.1 µg/mL (≈ 2.3 µM) | MIC ([15]; ATCC11778, aerial parts extracts, TTC detection, n.d. = growth inhibition not detected (0.18–11.36 mg/mL)): 1.5 µg/mL (≈ 3.14 µM)
SMILES: CNC(C)C1CCC(N)C(OC2C(N)CC(N)C(OC3OCC(C)(O)C(NC)C3O)C2O)O1 (stereo not shown) [Gentamicin, gentamicin]
MBC ([1]; MFBF10402, agar sub-cultivation, n.d. = not detected (0.18–11.36 mg/mL)): 0.8 µg/mL (≈ 1.68 µM) | MBC ([2]; ATCC10536, agar sub-cultivation, n.d. = not detected (0.18–11.36 mg/mL)): 1.5 µg/mL (≈ 3.14 µM) | MBC ([3]; ATCC29213, agar sub-cultivation): 0.7 µg/mL (≈ 1.47 µM) | MBC ([4]; ATCC6538, agar sub-cultivation, n.d. = not detected): 0.8 µg/mL (≈ 1.68 µM) | MBC ([5]; ATCC6633, agar sub-cultivation, n.d. = not detected (0.18–11.36 mg/mL)): 0.2 µg/mL (≈ 0.419 µM) | MBC [6]: 4.6 µg/mL (≈ 9.63 µM) | MBC ([7]; ATCC27853, agar sub-cultivation, n.d. = not detected (0.36–22.73 mg/mL)): 3 µg/mL (≈ 6.28 µM) | growth inhibition zone [8]: 24.0 ± 0.0 mm | growth inhibition zone [9]: 22.3 ± 0.6 mm | growth inhibition zone [10]: 24.7 ± 0.6 mm | growth inhibition zone [11]: 23.3 ± 0.6 mm | growth inhibition zone [12]: 24.3 ± 0.6 mm | growth inhibition zone [13]: 21.0 ± 0.0 mm | growth inhibition zone [14]: 15.0 ± 0.0 mm | MBC ([15]; ATCC11778, agar sub-cultivation, n.d. = not detected (0.18–11.36 mg/mL)): 1.5 µg/mL (≈ 3.14 µM)
